Bridge positions count the residues as written; N and C are the ends. Square brackets hold non-standard residues; d marks the D form. Peptide text beside a SMILES is read from it. * marks the point of attachment. Pen = CC(C)(S)[C@H](N)C(=O)O; dOrn = NCCC[C@@H](N)C(=O)O; Nonanoyl = CCCCCCCCC(=O)*; Orn = NCCC[C@H](N)C(=O)O; Dap = NC[C@H](N)C(=O)O
Test system: Gram-negative strains of P. aeruginosa, A. baumannii, K. pneumoniae, and E. cloacae
Assay type: cell-based
Procedure: MICs for laterocidine and its various analogues were determined by broth microdilution[49] for the following polymyxin-susceptible ATCC and clinical isolates: P. aeruginosa FADDI-PA022, FADDI-PA001, FADDI-PA025, FADDI-PA070, FADDI-PA060; A. baumannii FADDI-AB134, FADDI-AB034, FADDI-AB030, FADDI-AB174, FADDI-AB241; K. pneumoniae FADDI-KP032, FADDI-KP022, BM1, FADDI-KP065, FADDI-KP064, FADDI-KP003; and E. cloacae FADDI-EC001, FADDI-EC003, and FADDI-EC006. Experiments were performed with cation-adjusted Mueller–Hinton broth (CAMHB) in 96-well polystyrene microtiter plates. Wells were inoculated with 100 μL of bacterial suspension prepared in CAMHB (containing ∼10^6 CFU/mL) and 100 μL of CAMHB containing increasing concentrations of polymyxins (0–32 μg/mL). MIC measurements were performed in duplicate, with the MIC being the lowest concentration at which visible growth was inhibited following 18–20 h of incubation at 37 °C. Bacterial killing kinetics was investigated over 24 h as described previously.[50]

[1] = compared with native laterocidine

Q: Which “MICs against all tested strains (range)” value does the source give for `CC[C@H](C)[C@@H]1NC(=O)[C@@H](N)[C@@H](C)OC(=O)CNC(=O)CNC(=O)[C@H](CC(N)=O)NC1=O` [Peptide 13] (HELM PEPTIDE1{[C[C@@H](O[*:3])[C@H](N)C(=O)[*:2]].I.N.G.G}$PEPTIDE1,PEPTIDE1,1:R3-5:R2$$$V2.0) here?
A: > 32 µg/mL

Q: How did the “MICs against all tested strains (range)” value turn out when `CC[C@H](C)[C@@H]1NC(=O)[C@@H](NC(=O)[C@H](Cc2c[nH]c3ccccc23)NC(=O)[C@@H](CCCN)NC(=O)CNC(=O)[C@H](CCCN)NC(=O)[C@@H](CCCN)NC(=O)[C@@H](Cc2c[nH]c3ccccc23)NC(=O)[C@@H](Cc2ccc(O)cc2)NC(=O)[C@H](N)CO)[C@@H](C)OC(=O)CNC(=O)CNC(=O)[C@H](CC(N)=O)NC1=O` [Peptide 14] (H-[dS][dY][dW][dOrn][Orn]G[dOrn]WTINGG; ester 9-C) was run?
A: > 32 µg/mL

Q: How did the “MICs against P. aeruginosa and A. baumannii (range)” value turn out when `CCCCCCCCC(=O)N[C@H](CO)C(=O)N[C@H](Cc1ccc(O)cc1)C(=O)N[C@H](Cc1c[nH]c2ccccc12)C(=O)N[C@H](CCCN)C(=O)N[C@@H](CCCN)C(=O)NCC(=O)N[C@H](CCCN)C(=O)N[C@@H](Cc1c[nH]c2ccccc12)C(=O)N[C@H]1CNC(=O)CNC(=O)CNC(=O)[C@H](CC(N)=O)NC(=O)[C@H]([C@@H](C)CC)NC1=O` [Peptide 16] (Nonanoyl-[dS][dY][dW][dOrn][Orn]G[dOrn]W[Dap]INGG; lactam 9-C) was run?
A: > 32 µg/mL

Q: How did the “MICs against P. aeruginosa and A. baumannii (range)” value turn out when `CCCCCCCCC(=O)N[C@H](CO)C(=O)N[C@H](Cc1ccc(O)cc1)C(=O)N[C@H](Cc1c[nH]c2ccccc12)C(=O)N[C@H](CCCN)C(=O)N[C@@H](CCCN)C(=O)NCC(=O)N[C@H](CCCN)C(=O)N[C@@H](Cc1c[nH]c2ccccc12)C(=O)N[C@@H]1C(=O)N[C@@H]([C@@H](C)CC)C(=O)N[C@@H](CC(N)=O)C(=O)NCC(=O)NCC(=O)N[C@@H]1C` [Peptide 17] was run?
A: > 32 µg/mL

Q: For `CCCCCCCCC(=O)N[C@H](CO)C(=O)N[C@H](Cc1ccc(O)cc1)C(=O)N[C@H](Cc1c[nH]c2ccccc12)C(=O)N[C@H](CCCN)C(=O)N[C@@H](CCCN)C(=O)NCC(=O)N[C@H](CCCN)C(=O)N[C@@H](Cc1c[nH]c2ccccc12)C(=O)N[C@@H]1C(=O)N[C@@H]([C@@H](C)CC)C(=O)N[C@@H](CC(N)=O)C(=O)NCC(=O)N[C@H](C(=O)O)CSSC1(C)C` [Peptide 18] (Nonanoyl-[dS][dY][dW][dOrn][Orn]G[dOrn]W[Pen]INGC-OH; disulfide 9-13; C-terminus assumed), which “fold increase in MIC (loss of activity) against all strains / all species” value [1] is on record?
A: 2–8 fold

Q: Which results are given for `CCCCCCCCC(=O)N[C@H](CO)C(=O)N[C@H](Cc1ccc(O)cc1)C(=O)N[C@H](Cc1c[nH]c2ccccc12)C(=O)N[C@H](CCCN)C(=O)N[C@@H](CCCN)C(=O)NCC(=O)N[C@H](CCCN)C(=O)N[C@@H](Cc1c[nH]c2ccccc12)C(=O)N[C@H](C(=O)N[C@H](C(=O)N[C@@H](CC(N)=O)C(=O)NCC(=O)NCC(=O)O)[C@@H](C)CC)[C@@H](C)O` [Peptide 19] (Nonanoyl-[dS][dY][dW][dOrn][Orn]G[dOrn]WTINGG-OH)?
A: MICs against K. pneumoniae and E. cloacae (range): 4 to 32 µg/mL; MICs against P. aeruginosa and A. baumannii (range): 8 to 32 µg/mL; fold increase in MIC for K. pneumoniae and E. cloacae [1]: 2–4 fold; fold increase in MIC for P. aeruginosa and A. baumannii [1]: 2–8 fold

Q: How did the “MICs against P. aeruginosa, K. pneumoniae, and E. cloacae (range)” value turn out when `CCCCCCCCC(=O)N[C@H](CO)C(=O)N[C@H](Cc1ccc(O)cc1)C(=O)N[C@H](Cc1c[nH]c2ccccc12)C(=O)N[C@H](CCCN)C(=O)N[C@@H](CCCN)C(=O)NCC(=O)N[C@H](CCCN)C(=O)N[C@@H](Cc1c[nH]c2ccccc12)C(=O)N[C@H](C(=O)N[C@H](C(=O)N[C@@H](CC(N)=O)C(=O)NCC(=O)NCC(N)=O)[C@@H](C)CC)[C@@H](C)O` [Peptide 20] (Nonanoyl-[dS][dY][dW][dOrn][Orn]G[dOrn]WTINGG-NH2) was run?
A: 4 to 32 µg/mL

Q: And the “fold increase in MIC against P. aeruginosa, K. pneumoniae, and E. cloacae” value [1]?
A: 2–4 fold
